Experimental data taken from publication PMC9134009 (RSC Advances, 2021).

Test system: human gastric cancer cell line SGC7901
Test: CCK-8 in vitro cytotoxicity test, SGC7901
Assay type: cell-based
Conditions: read-out: IC50 (nM) SGC7901; CCK-8, 72 h exposure, n = 3

In the case of `N.N.[Cl][Pt][Cl]` [cisplatin], the IC50 is reported as 927 ± 77.6 nM.
